Data from article PMC8895129, “Pseudomonas aeruginosa Biofilm Dispersion by the Human Atrial Natriuretic Peptide” (Advanced Science, 2022).
Like-named read-outs stand apart in the source and are kept apart here.

Key:
[1] = system: P. aeruginosa PA14 established biofilm; experiment: Dispersion of 24 h established biofilm in flow cell, CLSM/COMSTAT; format: cell-based, Pseudomonas aeruginosa; conditions: mean ± SEM; for biofilm biovolumes reduction: 37 °C
Method: For biofilm dispersion experiments, overnight cultures of P. aeruginosa strains were performed in LB medium at 37 °C for 18 h with shaking (180 rpm). Bacterial cells were then washed and adjusted to OD580 = 0.1 in 0.9% w/v NaCl. The bacterial suspensions were then used to form a biofilm for 24 h under hydrodynamic conditions at 37 °C. Briefly, each channel of the flow cell was inoculated with 300 µL of bacterial suspension. A 2 h attachment step was performed without flow. After 2 h, each channel was then pumped with a 2.5 mL h^–1 flow rate of LB medium during 24 h. Next, the 24 h old biofilm of P. aeruginosa was exposed for 2 h (or 30 min) to 300 µL of studied compounds (i.e., peptides, antibiotics, or a combination of peptide + antibiotics) or 300 µL of ultra‐pure distilled water (control condition), added to each channel of the flow cell and without flow. Prior to image acquisition, biofilm cultures were then rinsed with LB medium using 2.5 mL h^–1 flow rate for 15 min. Finally, biofilm cells were stained and then observed by CLSM.
The CLSM observations of biofilms were performed using a Zeiss LSM710 microscope (Carl Zeiss Microscopy, Oberkochen, Germany) using a x40 oil immersion objective. Bacteria into the biofilm were stained with 5 × 10^−6 M of SYTO9 green‐fluorescent dye (Invitrogen, Carlsbad, CA). Biofilm matrix components were stained using fluorescent dyes. To assess the eDNA relative abundance, 1 × 10^−6 M of DDAO (Invitrogen, Carlsbad, CA) was used. The polysaccharides β1‐3 and β1‐4 were labeled with CalcoFluor White M2R at 200 µg mL^−1 (Sigma‐Aldrich, USA). eDNA and polysaccharides values were normalized to biofilms’ biomass. The Live/Dead BacLight kit (Invitrogen, Carlsbad, CA) was used to examine bacterial viability in biofilms according to manufacturer instructions. Images were taken every micrometer throughout the whole biofilm depth. For visualization and processing of 3D image, the Zen 2.1 SP1 software (Carl Zeiss Microscopy, Oberkochen, Germany) was used. Quantitative analyses of images stacks were performed using the COMSTAT software (http://www.imageanalysis.dk/).^[ [77] ^] At least three image stacks from at least three independent experiments were used for each analysis.

[2] = system: human Ether-a-go-go Related Gene (hERG) channel
[3] = target: T1, AmiC (Pseudomonas aeruginosa, UniProt P27017); experiment: biochemical
T1 sequence (P27017 whole entry): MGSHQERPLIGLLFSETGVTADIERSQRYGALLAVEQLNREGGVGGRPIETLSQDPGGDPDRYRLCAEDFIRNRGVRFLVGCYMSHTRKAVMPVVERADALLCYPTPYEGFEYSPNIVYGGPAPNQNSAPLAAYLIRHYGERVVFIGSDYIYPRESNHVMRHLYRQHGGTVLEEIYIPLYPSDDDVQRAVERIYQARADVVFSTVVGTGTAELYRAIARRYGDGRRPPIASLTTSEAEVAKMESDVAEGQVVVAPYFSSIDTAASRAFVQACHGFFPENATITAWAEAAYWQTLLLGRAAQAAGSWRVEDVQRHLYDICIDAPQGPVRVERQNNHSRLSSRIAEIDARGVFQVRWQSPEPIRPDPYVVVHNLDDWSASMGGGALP
Method: Briefly, AmiC protein was labeled using the RED‐NHS labeling kit (NanoTemper Technologies). The labeling reaction was performed according to the manufacturer's instructions in the supplied labeling buffer using a 20 × 10^−6 M protein concentration and a molar dye:protein ratio ≈2:1, at RT for 30 min. […] The label:protein ratio was determined using photometry at 650 and 280 nm. Typically, a ratio of 0.8 was achieved.
For thermophoresis, each ligand dilution was mixed with one volume of AmiC, which led to a final concentration of AmiC of 50 × 10^−9 M and final ligand concentrations at half of the ranges above. Instrument parameters were adjusted with 50% light‐emitting diode power and 20% MST power. Data of three independently pipetted measurements were analyzed (NT.Analysis software version 1.5.41, NanoTemper Technologies) using the signal from Thermophoresis + T‐Jump.

[4] = target: T1, AmiC; design: made in house; conditions: cited from earlier work
Description: […]; see 2.0 ± 0.3 × 10^−6 M for hCNP^[ [44] ^]). This is consistent with the van der Waals and hydrog ...

NC[C@H]1O[C@H](O[C@H]2[C@H](O)[C@@H](O[C@H]3O[C@H](CO)[C@@H](O)[C@H](N)[C@H]3O)[C@H](N)C[C@@H]2N)[C@H](N)C[C@@H]1O [tobramycin]
biofilm biovolumes reduction ([1]; tobramycin 10 µg mL^−1, 2 h, n = 3): 79.0 ± 4.0% | biofilm biovolumes reduction ([1]; tobramycin 50 µg mL^−1, 2 h, n = 4): 76.6 ± 4.0%

CC[C@H](C)[C@@H]1NC(=O)[C@H](CCCNC(=N)N)NC(=O)[C@H](CC(=O)O)NC(=O)[C@H](CCSC)NC(=O)[C@H](CCCNC(=N)N)NC(=O)CNC(=O)CNC(=O)[C@H](Cc2ccccc2)NC(=O)[C@@H](NC(=O)[C@H](CO)NC(=O)[C@H](CO)NC(=O)[C@H](CCCNC(=N)N)NC(=O)[C@H](CCCNC(=N)N)NC(=O)[C@H](CC(C)C)NC(=O)[C@@H](N)CO)CSSC[C@@H](C(=O)N[C@@H](CC(N)=O)C(=O)N[C@@H](CO)C(=O)N[C@@H](Cc2ccccc2)C(=O)N[C@@H](CCCNC(=N)N)C(=O)N[C@@H](Cc2ccc(O)cc2)C(=O)O)NC(=O)CNC(=O)[C@H](CC(C)C)NC(=O)CNC(=O)[C@H](CO)NC(=O)[C@H](CCC(N)=O)NC(=O)[C@H](C)NC(=O)CNC1=O [hANP, human Atrial Natriuretic Peptide]
hERG cardiac channel conductance [2]: did not modify | Kd [3]: 5 ± 3 µM

polymyxin B
biovolume reduction ([1]; polymyxin B 4 µg mL^−1, 2 h, n = 5): 70.0 ± 4.3%

Brain Natriuretic Peptide [hBNP]
affinity for AmiC [4]: no affinity

C[C@@H](O)[C@H]1C(=O)N2C(C(=O)O)=C(SCCN=CN)C[C@H]12 [imipenem]
biofilm reduction ([1]; imipenem 0.5 µg mL^−1, 2 h, n = 5): 69.8 ± 3.0%

C‐type Natriuretic Peptide [hCNP]
Kd ([4]; microscale thermophoresis, read-out: K D, binding to AmiC): 2 ± 0.3 µM
